From patent publication US4024082A, “Analgesics” (priority 1975, dated 1977)

Assays:
[1] = as described in U.S. Pat. No. 3,728,347; cited from earlier work
[2] = as described in U.S. Pat. No. 3,728,347; cited from earlier work; remark: listed apart in the source
[3] = system: morphine analgesia; experiment: Antagonism of morphine analgesia, Haffner method; format: in vivo, male mice dd strain; details: morphine 16 mg/kg subcutaneously
Description: (§1) The dl-KMG-86, d-KMG-86 and l-KMG-86 were all screened for their biological activity by the assays described in the reference J. Med. Chem. 16, 301 (1973). All three compounds were screened for their analgesic activity by the acetic acid induced stretching method of R. Kosta, Fed. Proc., Fed. Amer. Soc. Exp. Biol., 18, 412 (1959). Male albino mice dd strain (18.0-22.0 g.) were used. After the compounds were administered subcutaneously to five groups of animals consisting of ten mice per group, the effective ratio until 60 minutes was examined and the effective dose in 50% of the mice (ED50) was calculated by the Lichfield-Wilcoxin method [J. T. Lichfield and F. Wilcoxin, J. Pharmacol., 96, 99 (1949)]. […] Med. Wochenschr., 55, 731 (1929)], in which ten male mice dd strain per group were used.

[4] = J. Med. Chem. 16, 301 (1973); cited from earlier work
[5] = system: acetic acid induced stretching; experiment: Analgesic activity, acetic acid induced stretching method; format: in vivo, male albino mice dd strain; details: for ED50, Mean Value: 60 min
Description: as §1

[6] = humans; cited from earlier work
[7] = Side effects or toxicity; details: in vivo
[8] = Morphine analgesia (Haffner method); format: in vivo, male mice dd strain; details: subcutaneously
Description: as §1

[9] = stretching method, subcutaneous, effective ratio until 60 minutes, Lichfield-Wilcoxin method

Oc1ccc2c(c1)C13CCCCC1N(C2)N(CC1CC1)CC3 (racemic) [dl-KMG-86, dl-N-cyclopropylmethyl-3-hydroxy-9-azamorphinan]
opiate dependence liability [1]: lacking opiate dependence liability
analgesic activity compared with morphine [2]: remarkable analgesic activity as strong as that possessed by morphine
Antagonist Dose (AD50) [3]: 4.70 mg/kg, S. C.
activity relative to pentazocine [4]: about twice as active as pentazocine
ED50, Mean Value [5, 9]: 1.63 mg/kg
confirmation in clinical studies of the activity found in mice [6]: The activity found in mice was confirmed in clinical studies in humans

CC(C)=CCN1CCC2(C)c3cc(O)ccc3CC1C2C (centres unmarked) [Pentazocine, reference compound]
ED50 ([5]; Mus musculus, sc, 1 h, stretching method, subcutaneous, effective ratio until 60 minutes, Lichfield-Wilcoxin method): 2.4 mg/kg

Oc1ccc2c(c1)C13CCCCC1N(C2)N(CC1CC1)CC3 (stereo not drawn) [d-KMG-86, d-N-cyclopropylmethyl-3-hydroxy-9-azamorphinan]
Antagonist Dose (AD50) [3]: 20 mg/kg, S. C.
ED50, Mean Value [5, 9]: ca. 80 mg/kg

Oc1ccc2c(c1)C13CCCCC1N(C2)N(CC1CC1)CC3 (stereo not drawn) [l-KMG-86, l-N-cyclopropylmethyl-3-hydroxy-9-azamorphinan]
Antagonist Dose (AD50) [3]: 2.20 mg/kg, S. C.
side effects or toxicity [7]: no substantial side effects or toxicity
potency of l-isomer relative to dl-mixture ([5]; from Table I ED50 (stretching method)): about 3.5 fold
ED50, Mean Value [5, 9]: 0.45 mg/kg

CN1CC[C@]23c4c5ccc(O)c4O[C@H]2[C@@H](O)C=C[C@H]3[C@H]1C5 [morphine]
ED100 of morphine [8]: 16 mg/kg
